Reference: article PMC12052742, “Engineering a newly identified alcohol dehydrogenase from Sphingobium Sp. for efficient utilization of nicotinamide cofactors biomimetics” (Bioresources and Bioprocessing, 2025)

Tests used:
[1] = molecular target: SpADH2 WT (Sphingobium sp. SYK-6, UniProt G2IIZ8); experiment: Cofactor kinetic assay, WT; type: biochemical
Protocol: (§1) Specific activity of SpADH2 in substrate spectrum study was measured spectrophotometrically. PBS (pH 7.5) buffer was pre-heated at 30°C for 15 min. For NAD^+, 0.05 µg SpADH2 was added to the PBS buffer (100 µL), and a final concentration of 2 mM NAD^+ was added. For tsNCBs cofactor p-BANA^+, 5 µg SpADH2 and a final concentration of 7.5 mM p-BANA^+ was added. The mixture was carried out in a 96-well microplate, and a final concentration of 5 mM substrate was added to start the reaction. The microplate was incubated in 30°C for 1 h. Florescent probes (2-[2-(1,4-dihydro-1-methyl-3-quinolinyl)ethenyl]-1,3,3-trimethyl-3H-indolium) in a final concentration of 0.2 mM (100 µL) was added (Scheme S1), and the microplate was placed in a microplate reader immediately for measurement under 537 nm (Fomin et al. [2016]).
(§2) Kinetic analysis of SpADH2 and its variants were carried out following Michaelis-Menten equation or Michaelis-Menten excess substrate inhibition equation. For of the substrate kinetic assays, concentrations of cofactors were fixed at 5 mM for NAD^+ and 7.5 mM for p-BANA^+. For cofactor kinetic assays, the concentration of 1a was fixed at 5 mM.
(§3) Specific activity was determined spectrophotometrically as above except that gradient 1a (0−20 mM) or cofactor (0−35 mM) concentrations were applied.
(§4) Cofactor specificity ratio (CSR) represents the ratio of catalytic efficiency of p-BANA^+ to NAD^+ for each enzyme, and relative specificity (RS) stands for the CSR ratio of variants to WT (King et al. [2020]).

[2] = tested on: SpADH2 variant A290I; experiment: Cofactor kinetic assay, A290I; type: biochemical, Sphingobium sp. SYK-6
Protocol: as §1, §2, §3, §4

[3] = tested on: SpADH2 variant A47G; experiment: Activity of variant in oxidation of syringyl alcohol with p-BANA^+ (Fig. 5), A47G; type: biochemical, Sphingobium sp. SYK-6; conditions: cofactor p-BANA^+, substrate syringyl alcohol
Protocol: (§5) In the first round of screening, saturation mutagenesis was constructed for six positions (W114, T177, G172, G316, A47, and R227). […] Therefore, in the second round of mutagenesis, six additional sites within the 5 Å range of the cofactor ribose (H43, V202, T265, V288, G289, and A290) were selected for saturation mutagenesis screening (Fig. 6c and Fig. S6). Three beneficial mutations were identified. […] Subsequently, combinatorial mutagenesis was performed, resulting in 11 double variants and 3 triple variants.
(§6) Fig. 5 Relative activity of SpADH2 and its variants in oxidation of syringyl alcohol when utilizing p-BANA^+ as cofactor
(§7) In preliminary screening by spectrophotometric analysis, PBS (pH 7.5) buffer (50 µL) in a 96-well plate was pre-warmed at 30°C for 15 min, and a final concentration of 5 mM p-BANA^+ and 1 mM substrate syringyl alcohol were added, and 50 µL of crude enzyme were add to each well to start the reaction, with WT as control. The reaction mixture was incubated at 30°C for 1 h, followed by addition of fluorescent probes in a final concentration of 0.2 mM, and was subjected to determination under 537 nm as described above.

[4] = tested on: SpADH2; experiment: Cofactor spectrum of syringyl alcohol oxidation (HPLC specific activity), WT; type: biochemical, Sphingobium sp. SYK-6
Protocol: Fig. 2 Cofactor spectrum of syringyl alcohol oxidation catalyzed by SpADH2. The darkness of the background color for each cofactor stands for the activity of SpADH2 utilizing various cofactors. (a) NAD(P) ^+ and NMN^+ are shown in purple background. (b) tsNCBs are shown in cyan background. The evaluation of cofactor spectrum of SpADH2 was carried out under following conditions: 50 mM PBS buffer (pH 7.5) and 30℃, with 1a (5 mM) as substrate and different cofactors (7.5 mM) as cofactor. For NAD(P)^+ and NMN^+, 0.05 µg SpADH2 was added, and for tsNCBs, 5 µg SpADH2 was added. The results were analyzed by HPLC after 1 h reaction
Specific activity of SpADH2 in cofactor spectrum study was determined by HPLC analysis. PBS (pH 7.5) buffer was pre-heated at 30°C for 15 min. For NAD(P)^+ and NMN^+, 0.05 µg SpADH2 was added to PBS buffer (100 µL). For tsNCBs, 5 µg SpADH2 was added. A final concentration of 7.5 mM cofactor was added to the reaction mixture. Finally, a final concentration of 5 mM substrate was added to start the reaction. The reactions were conducted at 30°C.
One unit of enzyme activity is defined as the amount of enzyme required to form 1 µmol 1b per minute at pH 7.5 and 30°C. Same reaction without cofactor was used as a blank control.

[5] = tested on: SpADH2; experiment: Preliminary evaluation of NCB usage in oxidation of syringyl alcohol (HPLC); type: biochemical, Sphingobium sp. SYK-6; conditions: preliminary assay: 1a 1 mM, NCB 10 mM, pH 7.0, 30℃, 0.1 mg/mL enzyme, 1 h
Protocol: Sphingobium sp. SYK-6 belongs to genus Sphingomonas, and a search in UniProtKB identified 19 ADHs from this strain, including 5 PQQ-dependent and the remaining NAD^+/NADP^+-dependent enzymes. Two sequences annotated as aryl-alcohol dehydrogenases (SLG_34580 and SLG_24930) (Table. S1) were selected for heterologous expression (Fig. S1) and named SpADH1 and SpADH2, respectively. Their ability to utilize NCBs was assessed by oxidation of syringyl alcohol (1a) to produce syringaldehyde (1b) (Fig. 1a).
Fig. 1 (a) Reaction scheme of SpADH2-catalyzed oxidation of syringyl alcohol. (b) Specific activity of SpADH2 toward four NCBs. The evaluation of NCBs usage by SpADH2 was carried out under following conditions: 50 mM PBS buffer (pH 7.0) and 30℃, with 1a (1 mM) as substrate and 4 typical NCBs (10 mM) as cofactor. A total of 0.1 mg/mL enzyme was added to a 200 µL reaction mixture, and was analyzed by HPLC after 1 h reaction
Reaction samples were analyzed using Agilent 1260 Infinity II LC system under reversed phase condition. Column: Agilent C18 column. Analytical conditions for 1a and 1b: mobile phase: 50% water: 50% acetonitrile. The retention time for standard product 1b was 3.27 min, under flow rate of 1 mL·min^− 1and temperature of 30°C (Fig. S4).

[6] = tested on: SpADH2 variant H43L/A290I; experiment: Activity of variant in oxidation of syringyl alcohol with p-BANA^+ (Fig. 5), H43L/A290I; type: biochemical, Sphingobium sp. SYK-6; conditions: cofactor p-BANA^+
Protocol: as §5, §6, §7

[7] = cofactor (= label) varied, 1a fixed at 5 mM
[8] = cofactor (= label) varied, 1a fixed at 5 mM, read-out: Ki (cofactor inhibition)
[9] = cofactor kinetics, cofactor = label

Chain of SpADH2 WT (G2IIZ8 1-372): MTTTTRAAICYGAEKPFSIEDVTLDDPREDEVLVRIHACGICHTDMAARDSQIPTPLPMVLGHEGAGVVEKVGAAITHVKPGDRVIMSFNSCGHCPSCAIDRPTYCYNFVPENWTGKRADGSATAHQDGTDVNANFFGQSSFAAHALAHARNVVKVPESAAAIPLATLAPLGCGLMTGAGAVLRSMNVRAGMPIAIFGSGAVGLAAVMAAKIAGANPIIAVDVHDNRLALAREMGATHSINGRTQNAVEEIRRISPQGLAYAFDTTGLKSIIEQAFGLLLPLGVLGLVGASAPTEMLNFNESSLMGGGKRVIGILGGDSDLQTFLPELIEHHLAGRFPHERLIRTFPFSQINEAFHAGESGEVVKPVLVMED

Question: With `NC(=O)c1ccc[n+](Cc2ccc(C(=O)O)cc2)c1` [p-BANA^+, para-3-carbamoyl-1-(4-carboxybenzyl)pyridin-1-ium] as the compound, how does the kcat [1, 7] read?
Answer: Its kcat is 1.6 ± 0.5 min^− 1.

Question: And the Ki [1, 8]?
Answer: The Ki was 12 ± 4.7 mM.

Question: And the “Cofactor specificity ratio (catalytic efficiency of p-BANA^+ to NAD^+)” value ([1]; cofactor kinetics)?
Answer: The value was 3.81×10^-5.

Question: What about the kcat [2, 7] of the same compound?
Answer: Its kcat is 13 ± 2.5 min^− 1.

Question: What about the Km ([2]; cofactor (= label) varied, 1a fixed at 5 mM, pH 7.5, 30°C) of the same compound?
Answer: Its Km is 14 ± 3.8 mM.

Question: What about the Ki [2, 8] of the same compound?
Answer: Its Ki is 18 ± 5.8 mM.

Question: What about the “Cofactor specificity ratio (catalytic efficiency of p-BANA^+ to NAD^+)” value ([2]; cofactor kinetics) of the same compound?
Answer: Its value is 2.96×10^-4.

Question: And the “Relative specificity (CSR ratio of variant to WT)” value ([2]; cofactor kinetics)?
Answer: The value was 7.77.

Question: What about the “fold higher catalytic efficiency (kcat/Km) than WT” value [2, 9] of the same compound?
Answer: Its value is 10 fold.

Question: And the “fold increase in kcat value vs WT” value [2, 9]?
Answer: The value was 7.9 fold.

Question: What about the “fold higher activity than WT” value [3] of the same compound?
Answer: The value was 1.3 fold.

Question: And the “activity of SpADH2 with the tsNCB as cofactor” value ([4]; 1a 5 mM, cofactor 7.5 mM, pH 7.5, 30℃, 5 µg SpADH2, 1 h)?
Answer: The value was 11.55 U/g.

Question: And the “fold increasement of activity compared with preliminary assay” value ([4]; optimized conditions vs preliminary assay)?
Answer: The value was 7.1 fold.

Question: What about the “catalytic activity of SpADH2 with the NCB as cofactor” value [5] of the same compound?
Answer: Its value is 1.62 U/g.

Question: What about the “fold higher activity than WT” value ([6]; substrate syringyl alcohol) of the same compound?
Answer: The value was 7 fold.

Question: What about the activity ([6]; substrate syringyl alcohol (Fig. 5)) of the same compound?
Answer: Its activity is 70 U/g.
